10 compounds from patent US20250163054A1, “SUBSTITUTED BICYCLIC HETEROARYL COMPOUNDS USEFUL AS INHIBITORS OF TLR9” (Bristol-Myers Squibb Company, priority 2022, published 2025) can be followed below.

For orientation: IC50 means the concentration that gives 50% inhibition. Lower therefore signals greater potency.

Assay type in all cases: cell-based
The target of test [1] is T1, human TLR9 (Homo sapiens, UniProt Q9NR96).
T1 construct: host or cells: HEK-Blue cells (HEK293-derived reporter line)
T1 sequence (Q9NR96 26-1032): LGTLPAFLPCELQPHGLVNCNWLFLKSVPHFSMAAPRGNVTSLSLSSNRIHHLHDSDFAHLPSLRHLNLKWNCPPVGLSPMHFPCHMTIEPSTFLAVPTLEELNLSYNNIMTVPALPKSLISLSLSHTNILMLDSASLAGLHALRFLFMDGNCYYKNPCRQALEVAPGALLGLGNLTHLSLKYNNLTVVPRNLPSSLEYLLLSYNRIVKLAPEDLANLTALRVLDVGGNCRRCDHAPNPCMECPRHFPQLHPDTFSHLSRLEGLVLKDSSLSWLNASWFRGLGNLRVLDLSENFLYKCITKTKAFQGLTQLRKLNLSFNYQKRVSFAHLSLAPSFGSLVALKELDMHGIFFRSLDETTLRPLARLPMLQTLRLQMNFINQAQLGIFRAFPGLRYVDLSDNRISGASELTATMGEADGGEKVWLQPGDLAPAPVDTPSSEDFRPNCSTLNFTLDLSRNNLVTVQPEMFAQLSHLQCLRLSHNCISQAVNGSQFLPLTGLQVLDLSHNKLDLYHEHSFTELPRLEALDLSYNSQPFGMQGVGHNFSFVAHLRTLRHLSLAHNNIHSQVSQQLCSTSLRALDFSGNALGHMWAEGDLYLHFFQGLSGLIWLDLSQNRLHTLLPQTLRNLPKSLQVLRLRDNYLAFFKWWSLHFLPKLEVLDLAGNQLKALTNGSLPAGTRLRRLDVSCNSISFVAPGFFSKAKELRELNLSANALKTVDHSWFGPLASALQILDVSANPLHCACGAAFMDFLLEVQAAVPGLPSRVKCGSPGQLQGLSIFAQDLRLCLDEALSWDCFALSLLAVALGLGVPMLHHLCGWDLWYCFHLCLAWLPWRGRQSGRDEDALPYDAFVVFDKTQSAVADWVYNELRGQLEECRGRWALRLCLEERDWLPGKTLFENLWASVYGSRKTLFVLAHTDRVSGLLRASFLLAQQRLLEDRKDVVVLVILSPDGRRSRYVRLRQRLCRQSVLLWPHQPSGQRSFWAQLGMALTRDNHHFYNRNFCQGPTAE
The test is described as follows: TLR7/8/9 Inhibition Reporter Assays (TLR9). The settings on record: HEK-Blue cells overexpressing human TLR9, SEAP reporter, stimulated with TLR9 ligand ODN2006. The protocol: (§1) HEK-Blue™-cells (Invivogen) overexpressing human TLR7, TLR8 or TLR9 receptors were used for screening inhibitors of these receptors using an inducible SEAP (secreted embryonic alkaline phosphatase) reporter gene under the control of the IFN-β minimal promoter fused to five NF-κB and AP-1-binding sites. Cells are seeded into Greiner 384 well plates (15000 cells per well) that are predispensed (by ECHO) with testing compounds in DMSO to yield a final dose response concentration range of 0.85 nM-[…]. After a 60 minute compound pre-treatment in 37° C. incubator, the cells are then stimulated with a TLR7 ligand (gardiquimod at a final concentration of […]), TLR8 ligand (R848 at a final concentration of […]) or TLR9 ligand (ODN2006 at a final concentration of 200 nM) to activate NF-κB and AP-1 which induce the production of SEAP. After a 22 hour incubation at 37° C., 5% CO2, SEAP levels are determined with the addition of HEK-Blue™ Detection reagent (Invivogen), a cell culture medium that allows for detection of SEAP, according to manufacturer's specifications. The percent inhibition is determined as the % reduction in the HEK-Blue signal present in wells treated with agonist plus DMSO alone compared to wells treated with a known inhibitor.
Background: Reporter assays use an easily measured gene product as a stand-in for the process of interest.

The target of test [2] is T2, human TLR8 (Homo sapiens, UniProt Q9NR97).
T2 construct: host or cells: HEK-Blue cells (HEK293-derived reporter line)
T2 sequence (Q9NR97 27-1041): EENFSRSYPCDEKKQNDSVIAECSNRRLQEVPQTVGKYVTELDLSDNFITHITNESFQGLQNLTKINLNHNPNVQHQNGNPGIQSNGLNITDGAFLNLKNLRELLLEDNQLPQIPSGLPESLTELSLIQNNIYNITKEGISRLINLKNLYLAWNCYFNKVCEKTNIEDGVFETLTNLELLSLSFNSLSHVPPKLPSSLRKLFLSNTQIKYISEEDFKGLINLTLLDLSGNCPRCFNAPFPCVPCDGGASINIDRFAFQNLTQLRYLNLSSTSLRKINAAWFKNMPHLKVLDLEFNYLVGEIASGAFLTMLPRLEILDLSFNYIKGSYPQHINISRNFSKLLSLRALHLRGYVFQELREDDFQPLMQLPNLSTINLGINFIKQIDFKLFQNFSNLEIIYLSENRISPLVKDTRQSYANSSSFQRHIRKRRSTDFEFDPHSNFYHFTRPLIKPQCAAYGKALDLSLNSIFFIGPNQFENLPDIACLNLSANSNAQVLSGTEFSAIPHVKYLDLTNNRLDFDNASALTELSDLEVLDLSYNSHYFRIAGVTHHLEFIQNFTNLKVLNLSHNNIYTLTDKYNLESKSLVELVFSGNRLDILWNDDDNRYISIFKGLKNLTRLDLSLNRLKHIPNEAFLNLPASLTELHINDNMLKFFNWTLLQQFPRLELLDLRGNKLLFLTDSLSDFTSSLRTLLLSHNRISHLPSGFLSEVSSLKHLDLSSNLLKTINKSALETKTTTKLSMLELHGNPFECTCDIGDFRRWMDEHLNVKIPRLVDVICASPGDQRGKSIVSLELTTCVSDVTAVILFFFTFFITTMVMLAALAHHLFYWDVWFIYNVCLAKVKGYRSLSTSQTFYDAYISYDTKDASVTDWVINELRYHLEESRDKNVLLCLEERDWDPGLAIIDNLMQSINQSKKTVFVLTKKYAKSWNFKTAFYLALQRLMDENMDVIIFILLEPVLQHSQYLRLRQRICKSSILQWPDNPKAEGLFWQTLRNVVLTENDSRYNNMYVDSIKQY
The test can be described thus: TLR7/8/9 Inhibition Reporter Assays (TLR8). The settings on record: HEK-Blue cells overexpressing human TLR8, SEAP reporter, stimulated with TLR8 ligand R848. As for the experimental part: as §1

Test [3] has as its target T3, human TLR7 (Homo sapiens, UniProt Q9NYK1).
T3 construct: host or cells: HEK-Blue cells (HEK293-derived reporter line)
T3 sequence (Q9NYK1 27-1049): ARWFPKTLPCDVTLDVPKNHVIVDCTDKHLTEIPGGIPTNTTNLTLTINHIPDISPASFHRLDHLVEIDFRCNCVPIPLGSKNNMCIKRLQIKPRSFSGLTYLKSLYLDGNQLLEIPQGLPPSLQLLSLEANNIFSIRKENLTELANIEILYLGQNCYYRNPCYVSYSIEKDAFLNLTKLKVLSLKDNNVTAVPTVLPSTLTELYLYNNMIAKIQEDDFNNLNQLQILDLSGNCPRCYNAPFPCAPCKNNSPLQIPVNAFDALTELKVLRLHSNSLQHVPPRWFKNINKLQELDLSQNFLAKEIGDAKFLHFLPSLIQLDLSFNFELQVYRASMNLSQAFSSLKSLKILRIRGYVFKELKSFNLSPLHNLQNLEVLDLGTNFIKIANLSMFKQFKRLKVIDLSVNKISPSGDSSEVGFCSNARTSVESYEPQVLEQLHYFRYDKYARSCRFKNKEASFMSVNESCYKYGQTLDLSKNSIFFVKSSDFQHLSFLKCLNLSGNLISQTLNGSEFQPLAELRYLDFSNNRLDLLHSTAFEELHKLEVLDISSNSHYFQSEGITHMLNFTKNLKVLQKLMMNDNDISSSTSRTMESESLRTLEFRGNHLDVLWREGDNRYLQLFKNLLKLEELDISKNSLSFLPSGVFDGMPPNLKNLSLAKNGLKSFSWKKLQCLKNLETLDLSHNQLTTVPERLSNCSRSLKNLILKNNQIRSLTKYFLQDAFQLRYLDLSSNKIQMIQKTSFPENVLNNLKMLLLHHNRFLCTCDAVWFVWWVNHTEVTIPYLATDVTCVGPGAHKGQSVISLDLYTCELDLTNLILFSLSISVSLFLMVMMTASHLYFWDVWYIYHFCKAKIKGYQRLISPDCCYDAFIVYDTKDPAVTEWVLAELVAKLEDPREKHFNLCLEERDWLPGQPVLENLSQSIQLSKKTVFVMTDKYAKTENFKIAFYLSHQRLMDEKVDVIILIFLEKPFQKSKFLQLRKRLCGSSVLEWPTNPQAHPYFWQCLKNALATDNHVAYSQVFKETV
The test can be described thus: TLR7/8/9 Inhibition Reporter Assays (TLR7). The settings on record: HEK-Blue cells overexpressing human TLR7, SEAP reporter, stimulated with TLR7 ligand gardiquimod. As for the experimental part:
as §1

With `Cc1cc(-c2nc3c(C)nc(-c4ccc(N5CCN(CC(C)C)CC5)cc4)cc3n2C)cc(C)n1` [Example 14, 2-(2,6-dimethylpyridin-4-yl)-6-(4-(4-isobutylpiperazin-1-yl)phenyl)-1,4-dimethyl-1H-imidazo[4,5-c]pyridine], the figures for the IC50 in test [1], in test [2] and in test [3] were 380 nM, 4600 nM and 4500 nM, respectively.
On the same counts, the results for `COc1ccc(-c2nc3c(C)nc(-c4ccc(N5CCC6(CC5)CN(CC(C)(C)O)C6)cc4)cc3n2C)cc1OC` [Example 92, 1-(7-(4-(2-(3,4-dimethoxyphenyl)-1,4-dimethyl-1H-imidazo[4,5-c]pyridin-6-yl)phenyl)-2,7-diazaspiro[3.5]nonan-2-yl)-2-methylpropan-2-ol] are 1000 nM, greater than 50000 nM and 1500 nM.
In the same order, the values of `COCCN1CC2(C1)CN(c1ccc(-c3cc4c(nc(-c5ccc(OC)c(OC)c5)n4C)c(C)n3)cc1)C2` [Example 101, 2-(3,4-dimethoxyphenyl)-6-(4-(6-(2-methoxyethyl)-2,6-diazaspiro[3.3]heptan-2-yl)phenyl)-1,4-dimethyl-1H-imidazo[4,5-c]pyridine] are 85 nM, greater than 50000 nM and 1800 nM.
With `Cc1nc(-c2ccc(N3CCC(N4CCCC4)CC3)cc2)c(F)c2c1nc(-c1ccc(S(C)(=O)=O)cc1)n2C` [Example 44, 7-fluoro-1,4-dimethyl-2-(4-(methylsulfonyl)phenyl)-6-(4-(4-(pyrrolidin-1-yl)piperidin-1-yl)phenyl)-1H-imidazo[4,5-c]pyridine], the IC50 in test [1] was 2500 nM; in test [2] it was greater than 50000 nM; in test [3], 7800 nM.
For `Cc1cc(-c2nc3c(C)nc(-c4ccc(N5CCN(C6CCC6)CC5)cc4)cc3n2C)cc(C)n1` [Example 16, 6-(4-(4-cyclobutylpiperazin-1-yl)phenyl)-2-(2,6-dimethylpyridin-4-yl)-1,4-dimethyl-1H-imidazo[4,5-c]pyridine], the IC50 is 910 nM in test [1], greater than 50000 nM in test [2] and 2100 nM in test [3].
In the same order, the values of `COc1ccc(-c2nc3cnc(-c4ccc(N5C[C@@H]6CN(C(C)C)C[C@@H]6C5)cc4)cc3n2C2CC2)cc1OC` [Example 81, 1-cyclopropyl-2-(3,4-dimethoxyphenyl)-6-(4-((3aR,6aS)-5-isopropylhexahydropyrrolo[3,4-c]pyrrol-2(1H)-yl)phenyl)-1H-imidazo[4,5-c]pyridine] are 120 nM, 3300 nM and 3000 nM.
Regarding `COCCN1CC2(C1)CN(c1ccc(-c3cc4c(nc(-c5ccc(S(C)(=O)=O)cc5)n4C)c(C)n3)cc1)C2` [Example 104, 6-(4-(6-(2-methoxyethyl)-2,6-diazaspiro[3.3]heptan-2-yl)phenyl)-1,4-dimethyl-2-(4-(methylsulfonyl)phenyl)-1H-imidazo[4,5-c]pyridine], the IC50 in test [1] was 210 nM; in test [2], 16000 nM; in test [3], 7700 nM.
For the compound `Cc1nc(-c2ccc(C(=O)NC3CN(Cc4ccccc4)C3)cc2)cc2c1nc(-c1ccc(S(C)(=O)=O)cc1)n2C` [Example 49, N-(1-benzylazetidin-3-yl)-4-(1,4-dimethyl-2-(4-(methylsulfonyl)phenyl)-1H-imidazo[4,5-c]pyridin-6-yl)benzamide], the IC50 in test [1] was 810 nM; in test [3], 5500 nM.
In the same order, the values of `Cc1ccccc1C(=O)N1CCC(NCc2ccc(-c3cc4c(nc(-c5ccc(S(C)(=O)=O)cc5)n4C)c(C)n3)cc2)CC1` [Example 51, (4-((4-(1,4-dimethyl-2-(4-(methylsulfonyl)phenyl)-1H-imidazo[4,5-c]pyridin-6-yl)benzyl)amino)piperidin-1-yl)(o-tolyl)methanone] are 2300 nM and 6600 nM.
In test [1], `Cn1c(-c2ccc(S(C)(=O)=O)cc2)nc2cnc(C3CCN(C4CCN(C5CC5)CC4)CC3)cc21` [Example 32, 6-(1′-cyclopropyl-[1,4′-bipiperidin]-4-yl)-1-methyl-2-(4-(methylsulfonyl)phenyl)-1H-imidazo[4,5-c]pyridine] had an IC50 of 130 nM.
